Earlier results on 4 molecules are cited in patent US11066360B2, “Human plasma kallikrein inhibitors” (priority 2015, dated 2021).

Data set [1] relates to LPS- or bacterial-induced sepsis in animals.
Data set [2] concerns patients with hereditary angioedema (HAE). The note with it: human, in vivo.
In data set [3] the test system is rat models of arthritis.
In data set [4] the test system is mouse model of middle cerebral artery occlusion (MCAO).
For data set [5], the system named is sepsis patients.

Where a SMILES comes first, the peptide text is derived from it.

Turning to `NC(N)=NCCC[C@H](NC(=O)[C@H](Cc1ccccc1)NC(=O)[C@H]1CCCN1)C(=O)CCl` [CMK, H-D-Pro-Phe-Arg-chloromethylketone] (HELM PEPTIDE1{[dP].F.R.[ClC[*:1]]}$$$$V2.0), in data set [1], the lesions entry is “reduce” and the “vascular permeability in multiple organs” value was “reduce”.
Consider `NC(N)=NCCC[C@@H](N)C(=O)N[C@@H](CCCN=C(N)N)C(=O)N1CCC[C@H]1C(=O)N1C[C@H](O)C[C@H]1C(=O)NCC(=O)N[C@@H](Cc1cccs1)C(=O)N[C@@H](CO)C(=O)N1Cc2ccccc2C[C@@H]1C(=O)N1[C@H](C(=O)N[C@@H](CCCN=C(N)N)C(=O)O)C[C@@H]2CCCC[C@@H]21` [Icatibant], for which the “treating HAE” value in data set [2] is “effective”.
For `Cl.NCC1CCC(C(=O)N[C@@H](Cc2ccccc2)C(=O)Nc2ccc(CC(=O)O)cc2)CC1` (some centres unmarked) [PKSI-527], the joint swelling result in data set [3] was “reduce”.
Take “C1-inhibitor: a physiological inhibitor (C1-inhibitor) [Compound C1-inhibitor]”: the infarct size entry in data set [4] is listed as “reduced”. In data set [1], the lesions result is listed as “reduce” and the “vascular permeability in multiple organs” value is listed as “reduce”. Further, the “clinical improvement in sepsis patients” value in data set [5] was “Clinical improvement”.
